# Reference: patent US9045505B2, “Nitric oxide donors” (University of Otago, priority 2006, dated 2015)
# How the values were obtained:
# C2C12 cells = assay: S-nitrosation of cellular protein thiols in C2C12 cells; assay type: cell-based, mouse; conditions: 5 μM
# Procedure: FIG. 11 is a series of graphs showing S-nitrosation of mitochondrial thiols by MitoSNAP. (a) Time course of S-nitrosation of mitochondrial proteins by MitoSNAP. Liver mitochondria (1 mg protein) were incubated in 1 ml KCl buffer supplemented with rotenone and succinate in the presence of 5 μM MitoSNAP. At various times mitochondria were treated with 10 mM N-ethylmaleimide (NEM), isolated by centrifugation and the S-nitrosothiol content assessed. Data are of a typical experiment showing means±range of duplicate samples for each time point, each measured in duplicate. The experiment was repeated twice. (b) S-nitrosation of mitochondrial proteins by different concentrations of MitoSNAP and SNAP. Aliquots of liver mitochondria were incubated with the indicated concentrations of MitoSNAP or SNAP for […] in the presence or absence of 500 nM FCCP and then assessed for S-nitrosothiol content as in (a). For the +NEM sample, 10 mM NEM was added to the mitochondria and 1 min later 5 μM MitoSNAP was added and incubated for a further 2.5 min. Data are of a typical experiment showing means±range of duplicate samples for each time point, each measured in duplicate. The experiment was repeated twice. (c) S-nitrosation of cellular protein thiols by MitoSNAP. […] After further incubation for 5 min at 37° C. in the dark, the medium was removed and the content of S-nitrosated proteins was measured. […] After 5 min at 37° C. in the dark, the medium was removed and the cells were processed to isolate a mitochondria-enriched fraction and S-nitrosated protein was then determined Data are mean±sem of triplicate determinations (+MitoSNO1), or mean±range of duplicate determinations (+FCCP). […] S-nitrosated thiols were then selectively tagged with Cy3 maleimide and protein (10 μg) was then separated on a 12.5% SDS PAGE gel which was stained with coomassie blue and scanned for Cy3 fluorescence. The Cy3 fluorescence (SNO) and coomassie staining (coomassie) of each gel is shown. […]
# liver mitochondria = assay: Metabolism of MitoSNAP by mitochondria (RP-HPLC of supernatant); assay type: in vitro ADME, rat
# Procedure: FIG. 9 is a series of traces and graphs showing membrane potential-dependent MitoSNAP mitochondrial uptake and NO^• generation. (a-d) Liver mitochondria were incubated in KCl medium supplemented with rotenone in a stirred 3 ml chamber and electrodes were used to measure the concentrations of O2 and NO^• simultaneously. Where indicated succinate (10 mM), OxyHb (5 μM) or FCCP (500 nM) were added. For (a) and (b) 2 mg mitochondrial protein/ml and 20 μM MitoSNAP (a) or SNAP (b) were used. For (c) and (d) 0.5 mg mitochondrial protein/ml and 5 μM MitoSNAP were used. There was no effect of 5 μM MitoNAP on respiration or NO^• production. All traces are from typical experiments repeated at least twice. […] Mitochondria were then pelleted by centrifugation (10,000×g) then aliquots of the supernatant (700 μl) were mixed with 700 μl 0.1% TFA and analyzed by RP-HPLC. The amount of MitoSNAP and MitoNAP were calculated as the percentage of their peak areas relative to the sum of both peak areas.
# MitoSNAP, MitoNAP and their derivatives were separated by reverse phase HPLC (RP-HPLC) on a C18 column (Jupiter 300 Å, Phenomenex) with a Widepore C18 guard column (Phenomenex), using a Gilson 321 pump. […] Peaks were detected at 220 nm using a Gilson UV/VIS 151 spectrophotometer. […]
smiles,measurement,setting,value
"CC(=O)NC(C(=O)NCCCCC[P+](c1ccccc1)(c1ccccc1)c1ccccc1)C(C)(C)SN=O.CS(=O)(=O)[O-] (centres unmarked) [MitoSNAP, [5-(2-acetylamino-3-methyl-3-nitrosothio-butyrylamino)-penty1]-triphenylphosphonium methanesulfonate]",time of maximum S-nitrosation of cell proteins,C2C12 cells,5 to 10 min
same,S-nitrosation of proteins of a mitochondria-enriched cell fraction,C2C12 cells; 5 min,extensively S-nitrosated
same,extent of cell protein S-nitrosation,C2C12 cells; 5 min,considerably greater than that by SNAP
same,conversion of MitoSNAP to MitoNAP,liver mitochondria; energized mitochondria,rapidly consumed
same,conversion of MitoSNAP to MitoNAP,"liver mitochondria; unenergized mitochondria (FCCP), compared with energized",slower
